We go through 4 molecules from patent US10030064B2, “Mammalian cell culture processes for protein production” (priority 2009, dated 2018).

Structures are written as SMILES. Read-outs that look alike come from different tables or passages of the source.

The subject of data set [1] is purified IgG-fusion proteins. The conditions noted are these: Tris-acetate buffer pH 7.5, 37° C., 1 h. On the procedure: Reduced glutathione (GSH) at 0, 1 and 3 mM final concentrations was added to Tris-acetate buffered (pH 7.5) solution of purified IgG-fusion proteins, and the mixture of GSH and proteins was incubated at 37° C. for 1 h before SEC-HPLC analysis.
SEC analysis was performed according to the previously published method (Perico et al., 2008) with some modifications. Briefly, the Protein-A purified samples were run on an Agilent 1100 HPLC system (Agilent Technologies, Inc., Palo Alto, Calif.) on Tosoh Bioscience TSK-Gel G3000 SWxl column (7.8 ID×30 cm, 5 μm particles). The mobile phase contained 1× Phosphate Buffered Saline (PBS) at pH 7.4. The flow rate was 0.5 mL/min, and column temperature was controlled at 25° C. The signal was monitored by absorbance at wavelength of 280 nm.
To determine if GSH itself could affect protein aggregation by directly interacting with the proteins, we did in vitro study by adding GSH to Protein-A purified IgG-fusion proteins that were reconstituted in Tris-acetate buffer, and analyzed SEC profiles.

The subject of the next data set is GILZ. Put plainly: Western blot of GILZ protein in CHO cells. In kind it is cell-based, Chinese hamster. Particulars: in the presence of 1 μM RU-486. As to the method: Approximately 10^7 CHO cells were washed with 1× phosphate buffered saline (PBS) solution, lysed with 1 mL of Laemmli sample buffer (Bio-Rad Laboratories, Hercules, Calif.), and then denatured at 90° C. for 5 minutes. […] Membranes were stripped and re-probed with β-actin antibody (Santa Cruz Biotechnology) and an HRP-conjugated anti-mouse secondary antibody. Immunodetection was performed with the enhanced chemiluminescence Western blotting detection system (GE Healthcare UK Limited Little Chalfont, Buckinghamshire, UK) and visualized with a VersaDoc Imaging System (Bio-Rad Laboratories, Hercules, Calif.).
The blot was also reprobed with the beta-actin antibody as a control to assess equivalent gel loading.
(A western blot detects proteins with antibodies after separation by electrophoresis.)

The next data set relates to glutathione reductase. Put plainly: Western blot of glutathione reductase in CHO cells. In kind it is cell-based, Chinese hamster. The conditions noted are these: 1 μM RU-486 added one day before 0.1 μM DEX.
The subject of data set [2] is CHO cells. The experiment in a line: Preliminary experiment: RU-486 on CHO cell viability, growth and metabolic parameters. In kind it is cell-based, Chinese hamster. From the text:
RU-486 is a GR antagonist and often used as a tool drug in many GR related studies.

For data set [3], the system named is CHO cells. The experiment in a line: Shake flask CHO culture in serum free medium: viable cell density, viability, growth rate, productivity (Example 3). In kind it is cell-based, Chinese hamster. The conditions noted are these: for final viability: over 0.1 to 10 μM; for Final VCD / Peak VCD / Viability (final, day 10): added two days after inoculation. As to the method: The CHO cell line used in this study was subcloned from DG44 parental cells and cultured in a proprietary chemically-defined growth medium.
The experiments were carried out in 250-mL shake flasks (VWR international) with starting volumes of 100 mL and initial cell densities of 6×10^5 cells/mL. The cultures were placed on a shaker platform (VWR international) at 150 rpm and maintained at 37° C. and 6% CO2 for ten days. The cultures were sampled daily and the pH adjustment using 1M sodium carbonate, and fed with glucose and glutamine every two days in order to maintain them at certain levels. Cell density and viability were measured off-line a Bioprofile Analyzer 400 (Nova Biomedical Corporation, Waltham, Mass.).
The eluted protein was quantified using a 10-level standard curve.

Experimental for glutathione reductase: After being washed with 1×PBS, approximately 10^7 CHO cells were lysed with 1 mL of Laemmli sample buffer (Bio-Rad Laboratories) and denatured at 90° C. for 5 minutes. The whole cell lysates were separated on a 4-15% SDS-polyacrylamide gel, blotted to 0.45 μm nitrocellulose membranes (Bio-Rad Laboratories), and probed with primary antibodies and secondary antibody. The primary antibody for detection of glutathione reductase was the monoclonal antibody raised against amino acids 391-510 mapping near the C-terminus of glutathione reductase of human origin (Santa Cruz Biotechnology, Santa Cruz, Calif.). […] The primary antibody used for detection of glucocorticoid receptor was anti-human monoclonal antibody (Santa Cruz Biotechnology, Santa Cruz, Calif.). The secondary antibody was horseradish peroxidase (HRP)-conjugated anti-mouse antibody (Santa Cruz Biotechnology, Santa Cruz, Calif.). Membranes were stripped and re-probed with β-actin antibody (Santa Cruz Biotechnology) and HRP-conjugated secondary antibody. Immunodetection was performed with the enhanced chemiluminescence Western blotting detection system (GE Healthcare) and visualized with VersaDoc Imaging System (Bio-Rad Laboratories).
A Western Blot was performed to detect glutathione reductase expression in the whole cell lysates prepared from the CHO cells treated with various concentrations of DEX. […]

Take `N[C@@H](CCC(=O)N[C@@H](CS)C(=O)NCC(=O)O)C(=O)O` [GSH, Reduced glutathione]: the “reduction rate of percentage of high molecular weight species” value worked out at 15.3% in data set [1] (1 mM GSH) and 27.3% in data set [1] (3 mM GSH).

`CC#C[C@]1(O)CC[C@H]2[C@@H]3CCC4=CC(=O)CCC4=C3[C@@H](c3ccc(N(C)C)cc3)C[C@@]21C` [RU-486, mifepristone]: the “DEX-induced overexpression of GILZ protein” value in the data set with GILZ is recorded as “significantly decreased”. Further, the “up-regulatory effect of DEX on glutathione reductase expression” value with glutathione reductase is reported as “attenuated”. The “effect on cell viability and cell growth rate” value with CHO cells [2] (RU-486 at 10 μM) is given as “significant decrease”. Further, the “effect on CHO cell viability and metabolic parameters” value in the data set on CHO cells [2] (RU-486 concentrations not higher than 1 μM) is reported as “did not affect”.

Consider `C[C@]12C=CC(=O)C=C1CC[C@@H]1[C@@H]2[C@@H](O)C[C@@]2(C)[C@H]1CC[C@]2(O)C(=O)CO` [PRD, prednisolone], for which the final viability in the data set on CHO cells [3] was 69.4-75.5%. Besides, the “Final VCD” value is listed as 8.26 ×10^6 cells/mL in the data set on CHO cells [3] (treatment concentration 0.1 μM), 8.79 ×10^6 cells/mL in the data set on CHO cells [3] (treatment concentration 1 μM) and 8.27 ×10^6 cells/mL with CHO cells [3] (treatment concentration 10 μM). Further, the “Peak VCD” value in the data set on CHO cells [3] (treatment concentration 0.1 μM) is recorded as 8.99 ×10^6 cells/mL; in the data set with CHO cells [3] (treatment concentration 1 μM) it was 9.25 ×10^6 cells/mL; in the data set on CHO cells [3] (treatment concentration 10 μM), 8.05 ×10^6 cells/mL. For the same molecule, the “Viability (final, day 10)” value with CHO cells [3] (treatment concentration 0.1 μM) was found to be 69.4%; in the data set with CHO cells [3] (treatment concentration 1 μM), 76.8%; in the data set on CHO cells [3] (treatment concentration 10 μM), 77.5%.

For `C[C@]12CCC(=O)C=C1CC[C@@H]1[C@@H]2[C@@H](O)C[C@@]2(C)[C@H]1CC[C@]2(O)C(=O)CO` [HYC, hydrocortisone], the final viability in the data set with CHO cells [3] was 60.1-75.5%. In the data set on CHO cells [3] (treatment concentration 0.1 μM), the “Final VCD” value is 7.86 ×10^6 cells/mL; the “Peak VCD” value is on record as 10.06 ×10^6 cells/mL; the “Viability (final, day 10)” value turned out to be 60.1%. For the same molecule, in the data set on CHO cells [3] (treatment concentration 1 μM), the “Final VCD” value is listed as 8.15 ×10^6 cells/mL; the “Peak VCD” value is listed as 9.51 ×10^6 cells/mL; the “Viability (final, day 10)” value is on record as 65.1%. In the data set on CHO cells [3] (treatment concentration 10 μM), the “Final VCD” value was 7.80 ×10^6 cells/mL; the “Peak VCD” value is 8.44 ×10^6 cells/mL; the “Viability (final, day 10)” value stood at 75.5%.
